Laboratory results: PubChem BioAssay (NCI)
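Five concentrations, 48 hours, 96-well plates. TGI: total growth inhibition.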

Columns and labels:
Assay in all cases: NCI anticancer screen, dose series, 48 h
[1] = test system: NCI/ADR-RES ovarian
[2] = test system: HCT-116 colon
[3] = test system: SF-539 CNS
[4] = test system: HCC-2998 colon
[5] = test system: SK-MEL-28 melanoma
[6] = test system: OVCAR-4 ovarian
[7] = test system: COLO 205 colon
[8] = test system: HOP-62 NSCLC
[9] = test system: SK-MEL-2 melanoma
[10] = test system: RXF 393 renal
[11] = test system: MDA-N
[12] = test system: EKVX NSCLC
[13] = test system: CAKI-1 renal
[14] = test system: SK-OV-3 ovarian
[15] = test system: TK-10 renal
[16] = test system: MDA-MB-435
[17] = test system: OVCAR-5 ovarian
[18] = test system: SNB-19 CNS
[19] = test system: UACC-257 melanoma
[20] = test system: MDA-MB-231 breast
[21] = test system: SR leukemia
[22] = test system: MCF7 breast
[23] = test system: UACC-62 melanoma
[24] = test system: BT-549 breast
[25] = test system: T-47D breast
[26] = test system: A498 renal
[27] = test system: OVCAR-8 ovarian
[28] = test system: SF-295 CNS
[29] = test system: IGROV1 ovarian
[30] = test system: HT29 colon
[31] = test system: ACHN renal
[32] = test system: SK-MEL-5 melanoma
[33] = test system: HCT-15 colon
[34] = test system: U251 CNS
[35] = test system: NCI-H23 lung
[36] = test system: OVCAR-3 ovarian
[37] = test system: SN12C renal
[38] = test system: HL-60(TB) leukemia
[39] = test system: SF-268 CNS
[40] = test system: LOX IMVI melanoma
[41] = test system: NCI-H460 lung
[42] = test system: RPMI-8226 leukemia
[43] = test system: M14 melanoma
[44] = test system: DU-145 prostate
[45] = test system: MOLT-4 leukemia
[46] = test system: SW-620 colon
[47] = test system: 786-0 renal
[48] = test system: NCI-H226 lung
[49] = test system: A549 NSCLC
[50] = test system: CCRF-CEM leukemia
[51] = test system: SNB-75 CNS
[52] = test system: UO-31 renal
[53] = test system: PC-3 prostate
[54] = test system: KM12 colon
[55] = test system: MALME-3M melanoma
[56] = test system: K-562 leukemia
[57] = test system: HOP-92 NSCLC

## C=C(C)C1(Sc2ccc(OC)cc2)CC1
[1]
  TGI: > 100 µM
[2]
  TGI: > 100 µM
[3]
  TGI: > 100 µM
[4]
  TGI: 34.2 µM
[5]
  TGI: > 100 µM
[6]
  TGI: > 100 µM
[7]
  TGI: 60.1 µM
[8]
  TGI: > 100 µM
[9]
  TGI: 56.5 µM
[10]
  TGI: 36.3 µM
[11]
  TGI: > 100 µM
[12]
  TGI: > 100 µM
[13]
  TGI: > 100 µM
[14]
  TGI: > 100 µM
[15]
  TGI: > 100 µM
[16]
  TGI: 44 µM
[17]
  TGI: > 100 µM
[18]
  TGI: > 100 µM
[19]
  TGI: 55.7 µM
[20]
  TGI: > 100 µM
[21]
  TGI: 37.4 µM
[22]
  TGI: > 100 µM
[23]
  TGI: > 100 µM
[24]
  TGI: 58 µM
[25]
  TGI: > 100 µM
[26]
  TGI: > 100 µM
[27]
  TGI: > 100 µM
[28]
  TGI: 71 µM
[29]
  TGI: 98.4 µM
[30]
  TGI: 61.8 µM
[31]
  TGI: > 100 µM
[32]
  TGI: 31.6 µM
[33]
  TGI: > 100 µM
[34]
  TGI: > 100 µM
[35]
  TGI: > 100 µM
[36]
  TGI: 29.7 µM
[37]
  TGI: 35.4 µM
[38]
  TGI: 41.6 µM
[39]
  TGI: 67 µM
[40]
  TGI: 33.4 µM
[41]
  TGI: > 100 µM
[42]
  TGI: > 100 µM
[43]
  TGI: > 100 µM
[44]
  TGI: > 100 µM
[45]
  TGI: 40.3 µM
[46]
  TGI: > 100 µM
[47]
  TGI: > 100 µM
[48]
  TGI: 54.7 µM
[49]
  TGI: > 100 µM
[50]
  TGI: > 100 µM
[51]
  TGI: 78.5 µM
[52]
  TGI: > 100 µM
[53]
  TGI: > 100 µM
[54]
  TGI: > 100 µM
[55]
  TGI: 66.9 µM
[56]
  TGI: > 100 µM

## COc1cc(C2c3cccc4cccc(c34)C3CCC(=O)N32)cc(OC)c1O (stereo not given)
[1]
  TGI: > 50 µM
[2]
  TGI: > 50 µM
[3]
  TGI: > 50 µM
[5]
  TGI: > 50 µM
[6]
  TGI: > 50 µM
[7]
  TGI: > 50 µM
[8]
  TGI: > 50 µM
[9]
  TGI: > 50 µM
[10]
  TGI: > 50 µM
[11]
  TGI: > 50 µM
[12]
  TGI: > 50 µM
[14]
  TGI: > 50 µM
[16]
  TGI: > 50 µM
[17]
  TGI: > 50 µM
[18]
  TGI: > 50 µM
[19]
  TGI: > 50 µM
[57]
  TGI: > 50 µM
[21]
  TGI: > 50 µM
[22]
  TGI: > 50 µM
[23]
  TGI: > 50 µM
[24]
  TGI: > 50 µM
[25]
  TGI: > 50 µM
[26]
  TGI: > 50 µM
[27]
  TGI: > 50 µM
[28]
  TGI: > 50 µM
[29]
  TGI: > 50 µM
[30]
  TGI: > 50 µM
[31]
  TGI: > 50 µM
[33]
  TGI: > 50 µM
[34]
  TGI: > 50 µM
[35]
  TGI: > 50 µM
[36]
  TGI: > 50 µM
[37]
  TGI: > 50 µM
[38]
  TGI: > 50 µM
[41]
  TGI: > 50 µM
[42]
  TGI: > 50 µM
[43]
  TGI: > 50 µM
[44]
  TGI: > 50 µM
[45]
  TGI: > 50 µM
[46]
  TGI: > 50 µM
[47]
  TGI: > 50 µM
[48]
  TGI: > 50 µM
[49]
  TGI: > 50 µM
[50]
  TGI: > 50 µM
[51]
  TGI: > 50 µM
[52]
  TGI: > 50 µM
[53]
  TGI: > 50 µM
[54]
  TGI: > 50 µM
[56]
  TGI: > 50 µM
